Read-outs that look alike come from different tables or passages of the source.
Key:
[1] = tested on: PDE3A1; assay: cAMP-hydrolytic activity of FLAG-tagged PDE3A1 in transfected HEK293 cells; type: cell-based, human; conditions: 1 mM dBcAMP 1 hour; for cAMP-hydrolytic activity of PDE3A1: 1 μM isoproterenol 90 sec, 50 μM 8-pCPT-2′-O-Me-cAMP or 0.1 mM sodium butyrate 1 hour
Method: FIG. 3 Illustrates an illustrative effect of d8-pCPT-2′-O-Me-cAMP and sodium butyrate on PDE3A1 activity, wherein HEK293 cells were transfected with FLAG-tagged PDE3A and treated with 50 μM d8-pCPT-2′-O-Me-cAMP, 0.1 mM sodium butyrate or 1 mM dBcAMP for 1 hour. PDE3A activity was assayed as described;
(§1) FIGS. 9A-9B illustrate stimulation of PDE3A2 and PDE3A1 activity in response to PKC and PKA activation. (A) HEK293 cells were transfected with FLAG-tagged PDE3A2, with and without alanine substitution at S428, and treated with 10 ng/ml PMA for 15 min or 1 mM dBcAMP for 1 hour. (B) HEK293 cells were transfected with FLAG-tagged PDE3A1, with and without alanine substitutions at S312 and S428, and treated with 1 μM isoproterenol for 90 sec, 10 ng/ml PMA for 15 min or 1 mM dBcAMP for 1 hour. PDE3 activity was assayed as described. PDE3A constructs were immunoprecipitated with anti-FLAG antibody, and phosphorylation was analyzed by immunoblotting with anti-FLAG and phosphospecific antibodies as indicated; and
(§2) PKA and PKC modulate the catalytic activity of PDE3A and PDE3A2 through distinct molecular mechanisms: In view of the reported effects of PKA and PKC on PDE3A activity^3-6, we examined the effects of phosphorylation at S312 and S428 on the cAMP-hydrolytic activity of PDE3A isoforms in transfected HEK293 cells. […] This stimulation was not observed when cells were treated with either the EPAC activator 8-pCPT-2′-O-Me-cAMP or with sodium butyrate (FIG. 3). […] To determine whether similar consequences of phosphorylation occur in the case of PDE3A isoforms, protein extracts from transfected HEK293 cells, untreated or exposed to either isoproterenol or PMA, were analyzed by gel-filtration chromatography, measurement of catalytic activity and Western blotting. Under basal conditions, PDE3 activity and protein was recovered in a biphasic pattern in low- and high-molecular-weight peaks (FIG. 5).
(§3) Measurement of cAMP-hydrolytic activity: cAMP-hydrolytic activity was quantified at 30° C. by the two-step snake-venom method with [^3H]cAMP (1 μM) as substrate; PDE3 activity was quantified by measuring activity in the absence and presence of cilostamide. The amount of protein used per assay and the incubation times were adjusted to ensure that no more than 20% of the total cyclic nucleotide was hydrolyzed during the assay.
(§4) Treatment of cells with pharmacologic agents: HEK293 cells expressing the human PDE3A constructs were incubated at 37° C. in serum-free medium containing isoproterenol for 90 sec or PMA for 15 min. At the end of the incubation period, cells were solubilized in lysis buffer containing 20 mM MOPS pH 7.2, 15 mM MgCl2, 0.5% NP40, 150 mM NaCl, 5 mM EDTA, protease inhibitor cocktail and phosphatase inhibitor cocktail 3. Cellular debris was removed by centrifugation (1,000×g; 5 min), and cleared supernatants were used in the experiments.

[2] = tested on: PDE3A2; assay: Phosphorylation and 14-3-3 binding of FLAG-tagged PDE3A2 in transfected HEK293 cells; type: cell-based, human; conditions: for phosphorylation of PDE3A2 at S312 / phosphorylation of PDE3A2 at S428: isoproterenol 90 sec, dibutyryl cAMP 1 mM 1 hour, phosphospecific antibodies
Method: (§5) FIGS. 8A-8C Illustrate phosphorylation of PDE3A1 and PDE3A2 in response to PKA and PKC activation. HEK293 cells were transfected with FLAG-tagged PDE3A2 and PDE3A1. (A) Prior to lysis and immunoprecipitation with anti-FLAG antibodies, cells were treated with 1 µM isoproterenol for 90 sec or 10 ng/ml PMA for 15 min. (B) The experiment was carried out in cells incubated in the absence and presence of 100 μM IBMX before treatment with 1 µM isoproterenol for 90 sec. (C) FLAG-tagged PDE3A2 and PDE3A1, affinity-purified from transfected cells using anti-FLAG antibodies, were incubated in the absence or presence of 10 or 100 nM PKA and 200 μM ATP for 20 min at 30° C. Phosphorylation was analyzed by Western blotting with phosphospecific antibodies as indicated.
(§6) Furthermore, when affinity-purified FLAG-tagged PDE3A and PDE3A2 were phosphorylated in vitro by PKA, PDE3A2 was phosphorylated more robustly than PDE3A1 at both S312 and S428 (for both isoforms, S312 was phosphorylated more robustly than S428) […].
(§7) Activation of PKC by PMA in transfected HEK293 cells results in selective phosphorylation of PDE3A2 at S428: We compared the effects of PKC activation by PMA on the phosphorylation of FLAG-tagged PDE3A1 and PDE3A2 in transfected HEK293 cells.
(§8) Illustrative immunoprecipitation and immunoblotting: Endogenous or recombinant human PDE3A, its fragments or mutants, endogenous 14-3-3 or GST-14-3-3 proteins were immunoprecipitated by incubation overnight at 4° C. with anti-FLAG(M2)-coupled agarose beads or glutathione sepharose beads. Beads were centrifuged (5,000×g, 1 min) and washed four times with 1 ml buffer containing 20 mM MOPS pH 7.2, 15 mM MgCl2, 0.5% NP40 and 150 mM NaCl. Proteins were subjected to SDS-PAGE (8% polyacrylamide) and electrophoretic transfer to nitrocellulose membranes. Membranes were blocked using 5% nonfat milk in Tris-buffered saline (50 mM Tris pH 7.5, 150 mM NaCl, 0.1% Tween-20) for 1 h at room temperature and incubated with primary and HRP-conjugated secondary antibodies prepared in 5% (w/v) bovine serum albumin. Protein bands were visualized using an enhanced chemiluminescence detection system.
as §4

[3] = tested on: PDE3A2; assay: Gel-filtration chromatography and two-dimensional analysis of proteins co-immunoprecipitated with PDE3A2 from transfected HEK293 cells; type: cell-based, human; conditions: 10 ng/ml PMA 15 min; isoelectric focusing and SDS-PAGE
Method: (§9) FIGS. 5A-5B Illustrate two-dimensional analysis of HEK293 cell proteins co-immunoprecipitated with PDE3A, wherein FLAG-tagged PDE3A1- and PDE3A2-transfected HEK293 cells were treated with 1 μM isoproterenol for 90 sec or 10 ng/ml PMA for 15 min, respectively; untransfected, untreated cells served as controls. PDE3A1 and PDE3A2 were immunoprecipitated with anti-FLAG antibody. PDE3A isoforms and co-immunoprecipitated proteins were eluted with 250 μg/ml of 3×FLAG peptide and submitted to isoelectric focusing followed by SDS-PAGE. Proteins were visualized by silver staining, and spots were quantified and analyzed for inter-gel comparison using PDquest 8.1 software. Experiments were carried out in triplicate, such that (A) Images from one experiment are shown. […]
(§10) PKA and PKC modulate the catalytic activity of PDE3A and PDE3A2 through distinct molecular mechanisms: In view of the reported effects of PKA and PKC on PDE3A activity^3-6, we examined the effects of phosphorylation at S312 and S428 on the cAMP-hydrolytic activity of PDE3A isoforms in transfected HEK293 cells. […] To determine whether similar consequences of phosphorylation occur in the case of PDE3A isoforms, protein extracts from transfected HEK293 cells, untreated or exposed to either isoproterenol or PMA, were analyzed by gel-filtration chromatography, measurement of catalytic activity and Western blotting. […]

[4] = tested on: PDE3A2; assay: cAMP-hydrolytic activity of FLAG-tagged PDE3A2 in transfected HEK293 cells; type: cell-based, human; conditions: 10 ng/ml PMA 15 min, 1 mM dBcAMP 1 hour; for cAMP-hydrolytic activity of PDE3A2: isoproterenol
Method: as §1, §2, §3, §4

[5] = tested on: PDE3A1; assay: Phosphorylation and 14-3-3 binding of FLAG-tagged PDE3A1 in transfected HEK293 cells; type: cell-based, human; conditions: PMA 10 ng/ml 15 min; for phosphorylation of PDE3A1 at S428 / phosphorylation of PDE3A1 at S312: dibutyryl cAMP 1 mM 1 hour, phosphospecific antibodies; for binding of PDE3A1 to endogenous 14-3-3 (co-immunoprecipitation) / phosphorylation of PDE3A1 at S312: isoproterenol 90 sec
Method: as §5, §6, §7, §8, §4

[6] = treatment of dilated cardiomyopathy; cited from earlier work
[7] = tested on: PDE3; assay: cAMP-hydrolytic activity in cytosolic and microsomal fractions of human myocardium; type: biochemical
[8] = tested on: PDE3A1; assay: Gel-filtration chromatography and two-dimensional analysis of proteins co-immunoprecipitated with PDE3A1 from transfected HEK293 cells; type: cell-based, human; conditions: 1 μM isoproterenol 90 sec
Method: as §9, §10

[9] = tested on: 3T3 adipocytes; assay: Association of PKB with PDE3B in microsomal fractions of 3T3 adipocytes; type: cell-based; conditions: not shown
Source text: The interactions of PKB with PDE3B were examined. Microsomal fractions of 3T3 adipocytes (which express PDE3B) were solubilized with NP-40 and fractionated by gel filtration. […] An association between PKB and PDE3B was confirmed by the ability of anti-PDE3B antibodies to co-immunoprecipitate the two proteins in the PDE3B peak (not shown).

CO[C@@H]1[C@@H]2OP(=O)(O)OC[C@H]2O[C@H]1n1c(Sc2ccc(Cl)cc2)nc2c(N)ncnc21 [8-pCPT-2′-O-Me-cAMP]
cAMP-hydrolytic activity of PDE3A1 [1]: not observed

CCCCCCCCCCCCCC(=O)O[C@@H]1[C@@H](C)[C@@]2(O)[C@@H](C=C(CO)C[C@]3(O)C(=O)C(C)=C[C@@H]23)[C@@H]2C(C)(C)[C@]12OC(C)=O [PMA]
binding of PDE3A2 to endogenous 14-3-3 (co-immunoprecipitation) ([2]; PMA 10 ng/ml 15 min): increased binding to endogenous 14-3-3 | phosphorylation of PDE3A2 at S312 ([2]; PMA 10 ng/ml 15 min): no increase in phosphorylation at S312 | phosphorylation of PDE3A2 at S428 ([2]; PMA 10 ng/ml 15 min): marked increase in phosphorylation at S428 | number of proteins co-immunoprecipitated with PDE3A2 [3]: increased the number of proteins that co-immunoprecipitated with PDE3A2 | stimulation of cAMP-hydrolytic activity of PDE3A2 with S428A substitution [4]: blocked | cAMP-hydrolytic activity of PDE3A2 [4]: increase in cAMP-hydrolysis | phosphorylation of PDE3A1 at S428 [5]: little increase in phosphorylation at S428 | binding of PDE3A1 to endogenous 14-3-3 (co-immunoprecipitation) [5]: little increase in binding to endogenous 14-3-3 | phosphorylation of PDE3A1 at S312 [5]: no increase in phosphorylation of S312

Nc1cc(-c2ccncc2)c[nH]c1=O [amrinone]
initial hemodynamic responses [6]: favorable hemodynamic responses

O=C1CCc2cc(OCCCCc3nnnn3C3CCCCC3)ccc2N1 [cilostazol]
effects on cAMP-hydrolytic activity ([7]; cytosolic versus microsomal fractions of human myocardium): more potent effects in microsomal fractions

CCCC(=O)Nc1ncnc2c1ncn2[C@@H]1O[C@@H]2COP(=O)(O)O[C@H]2[C@H]1OC(=O)CCC [dibutyryl cAMP]
cAMP-hydrolytic activity of PDE3A1 [1]: stimulation of cAMP-hydrolytic activity | cAMP-hydrolytic activity of PDE3A1 construct with S312A and S428A substitutions [1]: same stimulation of catalytic activity | phosphorylation of PDE3A2 at S312 ([2]; PMA 10 ng/ml 15 min): phosphorylation at both S312 and S428 | phosphorylation of PDE3A2 at S428 ([2]; PMA 10 ng/ml 15 min): phosphorylation at both S312 and S428 | stimulation of cAMP-hydrolytic activity of PDE3A2 with S428A substitution [4]: similarly blocked by the S428A mutation | phosphorylation of PDE3A1 at S428 [5]: significant increase in the phosphorylation of PDE3A at both S312 and S428 | phosphorylation of PDE3A1 at S312 [5]: significant increase in the phosphorylation of PDE3A at both S312 and S428

CC(C)NCC(O)c1ccc(O)c(O)c1 (centres unmarked) [isoproterenol]
cAMP-hydrolytic activity of PDE3A1 [1]: did not stimulate cAMP-hydrolytic activity | phosphorylation of PDE3A2 at S312 in the presence of IBMX ([2]; 100 μM IBMX before isoproterenol for 90 sec): readily phosphorylated at S312 | phosphorylation of PDE3A2 at S312 ([2]; PMA 10 ng/ml 15 min): little phosphorylation of PDE3A2 | phosphorylation of PDE3A2 at S428 ([2]; PMA 10 ng/ml 15 min): little phosphorylation of PDE3A2 | cAMP-hydrolytic activity of PDE3A2 [4]: no stimulation of either isoform | binding of PDE3A1 to endogenous 14-3-3 (co-immunoprecipitation) [5]: co-immunoprecipitation of endogenous 14-3-3 | phosphorylation of PDE3A1 at S312 [5]: phosphorylation of PDE3A1 at S312 | elution of PDE3 activity and protein on Superose 6 gel filtration, PDE3A1-transfected cells [8]: pronounced shift of activity and protein from low- to high-molecular-weight peaks | number of proteins co-immunoprecipitated with PDE3A1 ([8]; isoelectric focusing and SDS-PAGE): increased the number of proteins that co-immunoprecipitated with PDE3A1

Cc1[nH]c(=O)c(C#N)cc1-c1ccncc1 [milrinone]
effects on cAMP-hydrolytic activity [7]: more potent effects in microsomal fractions

CCCC(=O)[O-].[Na+] [sodium butyrate]
cAMP-hydrolytic activity of PDE3A1 [1]: not observed

insulin: insulin, used to treat 3T3 adipocytes
percentage of PKB co-purifying with PDE3B ([9]; gel filtration): appeared to increase the percentage of PKB co-purifying with PDE3B | phosphorylation of PKB [9]: increased the phosphorylation of PKB

Source: patent US9513288B2, “Isoform-selective inhibitors and activators of PDE3 cyclic nucleotide phosphodiesterases” (The United States of America, as represented by the …, priority 2001, dated 2016)
